6 molecules from US9303088B2, “Detecting and treating breast cancer resistance to EGFR inhibitors” (The Regents of the University of California, priority 2009, dated 2016) can be followed below.

For one data set, the system named is HMT3522 T4-2 cells. Kind of data set: Phenotypic reversion of malignant T4-2 cells cultured in 3D lrECM with signaling inhibitors. Type of data set: cell-based, human. The note with it: for induction of phenotypically normal acinus-like structures: T4-2 cells in 3D lrECM; for phenotypic reversion of control T4-2 cells: vector control T4-2 cells (FIG. 17C). The source says: The retroviral cDNA library from malignant T4-2 cells was re-introduced into T4-2 cells. Retrovirus transduced T4-2 cells were subsequently grown on 3D1rECM with one of the small molecule inhibitors, AG1478 (EGFR inhibitor), PD98059 (mitogen-activated protein kinase inhibitor), or LY294002 (PI3K inhibitor), […] […] After the second round of screening, the cDNA inserts were recovered from genomic DNA by PCR using primers to the flanking sequences of the retroviral cloning vector. Genomic DNA was isolated from selected clones grown on the monolayer.
Microscopic visual fields of FIG. 3 show non-malignant HMT3522 S1 cells form polarized acinar structures (FIG. 3A) resembling normally differentiated acinus in vivo, whereas malignant T4-2 cells form disorganized colonies constantly growing on 3D 1rECM (FIG. 3B).
(§1) FIG. 4B is a western blot of extracted cell lysates blotted with antibodies against EGFR, β-integrin, phosphorylated EGFR, and E-cadherin, which was used as a loading control.

Data set [1] deals with FAM83A overexpressing T4-2 cells. Kind of data set: Phenotypic reversion of FAM83A-overexpressing T4-2 cells in 3D lrECM with inhibitors. Type of data set: cell-based, human. The note with it: for phenotypic reversion of full-length FAM83A overexpressing T4-2 cells: 3D lrECM (FIG. 5B).
The subject of the next data set is EGFR. Nature of the data set: Western blot of EGFR, phosphorylated EGFR and β1-integrin in AG1478-treated T4-2 cells. It counts as cell-based, human. The note with it: 3D lrECM, western blot (FIG. 4B).
From the text: as §1
In general terms: Immunoblotting shows a protein as a band on a membrane.

Data set [2] has as its system FAM83A. Kind of data set: RT-PCR and western blot of endogenous FAM83A in AG1478-treated T4-2 cells. Type of data set: cell-based, human. How it is done: The expression level of endogenous FA[…] in non-reverted and reverted T4-2 cells was analyzed by RT-PCR and western blot with antibody against endogenous FA[…]. […] RNA levels in T4-2 cells cultured in both 2D monolayer and 3D 1rECM treated with AG1478 or vehicle control DMSO for 4 days. FIG. 7B is a bar graph quantification of the results from FIG. 7A. […] RNA levels in S1 cells growing in 2D or 3D cultures. FIG. 7C is a western blot comparison of FA[…] protein levels in S1 and T4-2 cells growing in 2D or 3D cultures in the presence or absence of AG1478.

For data set [3], the system named is Vector control T4-2 cells. Kind of data set: Lapatinib treatment of vector control T4-2 xenografts in mice. It counts as in vivo, BALB/c-nude mice. The method, then:
(§2) Animal experiments were performed under federal guidelines and approved by Institutional Animal Welfare and Research Committee at LBN. Exponentially growing T4-2 cells or MDA-MB-468 cells were suspended at the density of 5×10^6 or 10×10^6, respectively, in 100 μl medium containing DMEM/F12 medium (50%) and Matrigel (50%). Cell suspension was subcutaneously injected into the rear flank of 6-8 wk old athymic female BALB/c-nude mice (nu/nu) (Charles River Laboratories) (n=8 per group). Tumor volumes were measured every other day. ANOVA 2-way analysis with Bonferroni post test was used to determine p-value. At the end of experiments, mice were sacrificed and subjected to pathological examinations.
(§3) The ability of FAM83A to confer cancer cell resistance to EGFR inhibitor in vivo was determined Vector control or FAM83A-overexpressing T4-2 cells were xenografted into mice, which were orally administered lapatinib by oral gavage at 30 mg/kg or 100 mg/kg twice daily for 3 weeks. […] Then, mice were randomized into vehicle (0.5% hydroxypropylmethylcellulose with 0.1% Tween 80 in water; n=8) and experimental treatment groups (n=8) to receive oral gavage of lapatinib at 30 mg/kg or 100 mg/kg twice daily for 3 weeks.

The test system of data set [4] is FAM83A-overexpressing T4-2 cells. Nature of the data set: Lapatinib treatment of FAM83A-overexpressing T4-2 xenografts in mice. Type of data set: in vivo, BALB/c-nude mice. The method, then:
as §2, §3

A further data set deals with MDA-MB468 cells. Nature of the data set: Xenograft growth of FAM83A shRNA-treated MDA-MB468 cells in nude mice. It counts as in vivo, BALB/c-nude mice. The note with it: fraction of the control cells (FIG. 17B). How it is done: as §2
To confirm this observation for cells with stable FAM83A-depletion and a different genetic background, control or FAM83A shRNA-treated MDA-MB468 cells were subcutaneously injected into the rear flank of nude mice and monitored for their growth. For FAM83A shRNA production, a double-stranded DNA oligonucleotide was generated from the following sequences: sense, 5′-[…]-3′ (SEQ ID NO:7); antisense, 5′-[…]-3′ (SEQ ID NO:8) (target sequence underlined; BamH1/EcoR1 cohesive ends italicized). Both oligonucleotides were annealed and ligated into BamH1/EcoR1 site of pGreen puro lentival vector (System Biosciences).

The test system of data set [5] is FAM83A. Nature of the data set: FAM83A protein knock-down by siRNA in T4-2 cells (western blot and immunofluorescence with FAM83A polyclonal antibody). The note with it: T4-2 lysates, western blot vs scrambled control (FIG. 14B). It counts as cell-based, human. How it is done: The specificity of FAM83A polyclonal antibody was tested by performing western blot and immunofluorescence analysis in two different sets of FAM83A-specific siRNA-treated T4-2 cells (siRNA#1, SEQ ID NO:1; and siRNA#2, SEQ ID NO:2) using the FAM83A polyclonal antibody.

The mark [6] stands for this setting: lapatinib 30 mg/kg, hematoxylin and eosin (FIG. 18B).
Setting [7] is: lapatinib oral gavage twice daily for 3 weeks, 30 mg/kg (FIG. 17D).

AG1478: the “morphology of T4-2 cells treated with AG1478” value in the data set on HMT3522 T4-2 cells (3D lrECM, 10 days, different concentrations (FIG. 4A)) is “form growth arrested acinus-like structures”. Further, the “induction of phenotypically normal acinus-like structures” value with HMT3522 T4-2 cells (100 nM AG1478) is recorded as “phenotypically normal acinus-like structures were induced”. Further, the “phenotypic reversion of full-length FAM83A overexpressing T4-2 cells” value in data set [1] is “not”. For the same molecule, in the data set with EGFR, the EGFR protein level entry is recorded as “decreased levels”, the “phosphorylated EGFR level” value is listed as “lower levels” and the β1-integrin protein level result is given as “decreased levels”. In addition, the “FAM83A mRNA expression” value in the data set on FAM83A [2] (AG1478 4 days, RT-PCR) is given as “decreased”. For the same molecule, the FAM83A protein expression result in the data set with FAM83A [2] (AG1478, western blot) is “decreased”.
Consider `COc1cc2ncnc(Nc3ccc(F)c(Cl)c3)c2cc1OCCCN1CCOCC1` [gefitinib], for which the “phenotypic reversion of control T4-2 cells” value with HMT3522 T4-2 cells is “reverted”.
As for `CS(=O)(=O)CCNCc1ccc(-c2ccc3ncnc(Nc4ccc(OCc5cccc(F)c5)c(Cl)c4)c3c2)o1` [lapatinib], the “phenotypic reversion of control T4-2 cells” value with HMT3522 T4-2 cells is “reverted”. Also, the “structure of FAM83A-overexpressing T4-2 cells in presence of EGFR inhibitor” value in data set [1] (FIG. 17C) is “maintained disorganized structures”. For the same molecule, the “dose dependence of tumor inhibitory action on control cells” value in data set [3] (30 mg/kg or 100 mg/kg oral gavage twice daily (FIG. 18A)) was “independent of the dose above 30 mg/kg”. In addition, in data set [3] (setting [6]), the “pathological examination of sectioned control tumors” value is “well-circumscribed and distinctly separated from the stromal regions”. In data set [3] (setting [7]), the “growth of control tumors” value is “significantly inhibited”. The “pathological examination of sectioned FAM83A-overexpressing tumors” value in data set [4] (setting [6]) is “had been invading the stromal regions”. In data set [4] (lapatinib oral gavage twice daily for 3 weeks (FIG. 17D)), the “size of lapatinib-treated FAM83A-overexpressing tumors relative to controls” value worked out at 5 times. The “growth of FAM83A-overexpressing tumors” value in data set [4] (setting [7]) is “not affected”.
On to `COc1cccc(-c2cc(=O)c3ccccc3o2)c1N` [PD98059], for which the “induction of phenotypically normal acinus-like structures” value in the data set with HMT3522 T4-2 cells (20 μM PD98059) was “phenotypically normal acinus-like structures were induced”. Besides, the “phenotypic reversion of full-length FAM83A overexpressing T4-2 cells” value in data set [1] is listed as “undergo phenotypic reversion”.

B1: FAM83A shRNA: shRNA from double-stranded DNA oligonucleotide (SEQ ID NO:7 and 8) ligated into pGreen puro lentiviral vector (nucleic acid)
sense: GATCCGTGTGGAAGGAGAGATATACTTCCTGTCAGATATATCTCTCCTTCCACACTTTTTG
antisense: AATTCAAAAAGTGTGGAAGGAGAGATATATCTGACAGGAAGTATATCTCTCCTTCCACACG
As to B1, the “tumor growth relative to control cells” value in the data set on MDA-MB468 cells is reported as “¼”.

B2: siRNA#1: one of two different sets of FAM83A-specific siRNA; printed as SEQ ID NO:1 (nucleic acid)
chain: ATGAGCCGGTCAAGGCACCTGGGCAAAATCCGGAAGCGTCTGGAAGATGTCAAGAGCCAGTGGGTCCGGCCAGCCAGGGCTGACTTTAGTGACAACGAGAGTGCCCGGCTGGCCACGGACGCCCTCTTGGATGGGGGTTCTGAAGCCTACTGGCGGGTGCTCAGCCAGGAAGGCGAGGTGGACTTCTTGTCCTCGGTGGAGGCCCAGTACATCCAGGCCCAGGCCAGGGAGCCCCCGTGTCCCCCAGACACCCTGGGAGGGGCGGAAGCAGGCCCTAAGGGACTGGACTCCAGCTCCCTACAGTCCGGCACCTACTTCCCTGTGGCCTCAGAGGGCAGCGAGCCGGCCCTACTGCACAGCTGGGCCTCAGCTGAGAAGCCCTACCTGAAGGAAAAATCCAGCGCCACTGTGTACTTCCAGACCGTCAAGCACAACAACATCAGAGACCTCGTCCGCCGCTGCATCACCCGGACTAGCCAGGTCCTGGTCATCCTGATGGATGTGTTCACGGATGTGGAGATCTTCTGTGACATTCTAGAGGCAGCCAACAAGCGTGGGGTGTTCGTTTGTGTGCTCCTGGACCAGGGAGGTGTGAAGCTCTTCCAGGAGATGTGTGACAAAGTCCAGATCTCTGACAGTCACCTCAAGAACATTTCCATCCGGAGTGTGGAAGGAGAGATATACTGTGCCAAGTCAGGCAGGAAATTCGCTGGCCAAATCCGGGAGAAGTTCATCATCTCGGACTGGAGATTTGTCCTGTCTGGATCTTACAGCTTCACCTGGCTCTGCGGACACGTGCACCGGAACATCCTCTCCAAGTTCACAGGCCAGGCGGTGGAGCTGTTTGACGAGGAGTTCCGCCACCTCTACGCCTCCTCCAAGCCTGTGATGGGCCTGAAGTCCCCGCGGCTGGTCGCCCCCGTCCCGCCCGGAGCAGCCCCGGCCAATGGCCGCCTTAGCAGCAGCAGTGGCTCCGCCAGTGACCGCACGTCCTCCAACCCCTTCAGCGGCCGCTCGGCAGGCAGCCACCCCGGTACCCGAAGTGTGTCCGCGTCTTCAGGGCCCTGTAGCCCCGCGGCCCCACACCCGCCTCCACCGCCCCGGTTCCAGCCCCACCAAGGCCCTTGGGGAGCCCCGAGTCCCCAGGCCCACCTCTCCCCGCGGCCCCACGACGGCCCGCCCGCCGCTGTCTACAGCAACCTGGGGGCCTACAGGCCCACGCGGCTGCAGCTGGAGCAGCTGGGCCTGGTGCCGAGGCTGACTCCAACCTGGAGGCCCTTCCTGCAGGCCTCCCCTCACTTCTGA
modifications: Homo sapien
As for B2, in the data set with FAM83A [5], the “23 kDa FAM83A band” value is recorded as “reduced” and the “99 kDa FAM83A band” value is reported as “reduced”.
